Laboratory results: patent US9409884B2 (Rigel Pharmaceuticals, Inc., priority 2012, dated 2016)
pEC50: −log10 of the molar value.

These molecules were tested against AMPK (assay: AMPK activation, enzyme-linked immunosorbent assay). Settings: Table 8, compounds of Table 1.
Assay type: biochemical
Outline: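 AMPK activation by test compounds was measured by enzyme-linked immunosorbent assay.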

pEC50	Compound
> 7.00	CN(C(=O)c1cc2cc(OC3CCN(c4ccc(C(F)(F)F)cc4)CC3)ccc2o1)C1CCN(Cc2cccnc2)CC1 [Compound 1-109, N-methyl-N-(1-(pyridin-3-ylmethyl)piperidin-4-yl)-5-(1-(4-(trifluoromethyl)phenyl)piperidin-4-yloxy)benzofuran-2-carboxamide]
6.00 to 6.30	CC(C)(C)OC(=O)N1CCC(NC(=O)c2cc(OC3CCN(c4ccc(C(F)(F)F)cc4)CC3)ccn2)CC1 [Compound 1-12, tert-butyl 4-(4-(1-(4-(trifluoromethyl)phenyl)piperidin-4-yloxy)picolinamido) piperidine-1-carboxylate]

More lines, now with the values behind:

Compound	pEC50
N#Cc1ccc(CN2CCC(NC(=O)c3cc4cc(OC5CCN(Cc6cnn(-c7ccc(C#N)cc7)c6)CC5)ccc4o3)CC2)cc1 [Compound 1-162, N-(1-(4-cyanobenzyl)piperidin-4-yl)-5-(1-((1-(4-cyanophenyl)-1H-pyrazol-4-yl)methyl)piperidin-4-yloxy)benzofuran-2-carboxamide]	> 7.00
O=C(NC1CCN(Cc2ccncc2)CC1)c1ccnc(OC2CCN(c3ccc(C(F)(F)F)cc3)CC2)c1 [Compound 1-20, N-(1-(pyridin-4-ylmethyl)piperidin-4-yl)-2-(1-(4-(trifluoromethyl)phenyl)piperidin-4-yloxy) isonicotinamide]	6.00 to 6.30

Same assay, conditions: Table 9, compounds of Table 2

pEC50	Compound
5.30 to 6.00	O=C(NC1CCN(S(=O)(=O)c2cccc(C(F)(F)F)c2)CC1)c1ccc2[nH]c3c(c2c1)CN(Cc1ccc(C(F)(F)F)cc1)CC3 [Compound 2-30, 2-(4-(trifluoromethyl)benzyl)-N-(1-(3-(trifluoromethyl)phenylsulfonyl)piperidin-4-yl)-2,3,4,5-tetrahydro-1H-pyrido[4,3-b]indole-8-carboxamide]
5.30 to 6.00	O=C(NC1CCN(S(=O)(=O)c2ccc(F)cc2)CC1)c1ccc2[nH]c3c(c2c1)CN(Cc1ccc(C(F)(F)F)cc1)CC3 [Compound 2-28, N-(1-(4-fluorophenylsulfonyl)piperidin-4-yl)-2-(4-(trifluoromethyl)benzyl)-2,3,4,5-tetrahydro-1H-pyrido[4,3-b]indole-8-carboxamide]

Same assay, conditions: Table 10, compounds of Table 3

pEC50	Compound
> 7.00	N#Cc1ccc(CN2CCC(NC(=O)c3ccc(C(=O)N4CCN(c5ccc(C(F)(F)F)cn5)CC4)cc3)CC2)cc1 [Compound 3-30, N-(1-(4-cyanobenzyl)piperidin-4-yl)-4-(4-(5-(trifluoromethyl)pyridin-2-yl)piperazine-1-carbonyl)benzamide]

Same assay, conditions: Table 12, compounds of Table 5

pEC50	Compound
> 6.00	N#Cc1ccc(CN2CCC(NC(=O)c3ccc(OC4CCN(c5ccc(C(F)(F)F)cc5)CC4)c(F)c3)CC2)cc1 [Compound 5-43, N-(1-(4-cyanobenzyl)piperidin-4-yl)-3-fluoro-4-(1-(4-(trifluoromethyl)phenyl)piperidin-4-yloxy)benzamide]
> 6.00	N#Cc1ccc(CN2CCC(NC(=O)c3ccc(OC4CCN(c5ccc(C#N)cc5)CC4)c(F)c3)CC2)cc1 [Compound 5-45, N-(1-(4-cyanobenzyl)piperidin-4-yl)-4-(1-(4-cyanophenyl)piperidin-4-yloxy)-3-fluorobenzamide]
> 6.00	O=C(NC1CCN(Cc2ccc(Cl)cc2)CC1)c1ccc(OC2CCN(Cc3ccc(Cl)c(Cl)c3)CC2)c(F)c1 [Compound 5-80, N-(1-(4-chlorobenzyl)piperidin-4-yl)-4-(1-(3,4-dichlorobenzyl)piperidin-4-yloxy)-3-fluorobenzamide]
> 6.00	N#Cc1ccc(CN2CCC(Oc3ccc(C(=O)NC4CCN(Cc5ccccc5)CC4)c(Cl)c3)CC2)cc1 [Compound 5-51, N-(1-benzylpiperidin-4-yl)-2-chloro-4-(1-(4-cyanobenzyl)piperidin-4-yloxy)benzamide]

Second part, the molecule before the results:

Compound	pEC50
N#Cc1ccc(N2CCC(Oc3ccc(C(=O)NC4CCN(Cc5ccncc5)CC4)cc3F)CC2)cc1 [Compound 5-44, 4-(1-(4-cyanophenyl)piperidin-4-yloxy)-3-fluoro-N-(1-(pyridin-4-ylmethyl)piperidin-4-yl)benzamide]	> 6.00
O=C(NC1CCN(Cc2ccccc2)CC1)c1cccc(OC2CCN(c3ccncc3)CC2)c1 [Compound 5-53, N-(1-benzylpiperidin-4-yl)-3-(1-(pyridin-4-yl)piperidin-4-yloxy)benzamide]	4.70 to 5.00
N#Cc1ccc(CN2CCC(NC(=O)c3cccc(OC4CCN(Cc5ccc(OC(F)(F)F)cc5)CC4)c3)CC2)cc1 [Compound 5-123, N-(1-(4-cyanobenzyl)piperidin-4-yl)-3-(1-(4-(trifluoromethoxy)benzyl)piperidin-4-yloxy)benzamide]	< 4.00

Same assay, conditions: Table 13, compounds of Table 6

pEC50	Compound
> 7.00	N#Cc1ccc(CN2CCC(NC(=O)c3cc4cc(C(=O)NC5CCN(c6ccc(C#N)cc6)CC5)ccc4o3)CC2)cc1 [Compound 6-90, N2-(1-(4-cyanobenzyl)piperidin-4-yl)-N5-(1-(4-cyanophenyl)piperidin-4-yl)benzofuran-2,5-dicarboxamide]
> 7.00	N#Cc1ccc(CN2CCC(NC(=O)c3cc4cc(C(=O)N5CCN(Cc6ccc(S(=O)(=O)C(F)(F)F)cc6)CC5)ccc4o3)CC2)cc1 [Compound 6-128, N-(1-(4-cyanobenzyl)piperidin-4-yl)-5-(4-(4-(trifluoromethylsulfonyl)benzyl)piperazine-1-carbonyl)benzofuran-2-carboxamide]
6.00 to 7.00	CN(C)C(=O)c1ccc(N2CCN(C(=O)c3ccc4oc(C(=O)NC5CCN(Cc6ccc(C#N)cc6)CC5)cc4c3)CC2)cc1 [Compound 6-110, N-(1-(4-cyanobenzyl)piperidin-4-yl)-5-(4-(4-(dimethylcarbamoyl)phenyl)piperazine-1-carbonyl) benzofuran-2-carboxamide]

Same assay, conditions: Table 14, compounds of Table 7

pEC50	Compound
> 6.00	CS(=O)(=O)c1ccc(N2CCN(c3ccc(C(=O)NC4CCN(Cc5ccc(C#N)cc5)CC4)cn3)CC2)cc1 [Compound 7-77, N-(1-(4-cyanobenzyl)piperidin-4-yl)-6-(4-(4-(methylsulfonyl)phenyl)piperazin-1-yl)nicotinamide]
5.00 to 6.00	COc1ccc(CN2CCC(NC(=O)c3ccc(C(=O)N4CCC(Oc5ccc6c(c5)ncn6C)CC4)nc3)CC2)cc1 [Compound 7-40, N-(1-(4-methoxybenzyl)piperidin-4-yl)-6-(4-(1-methyl-1H-benzo[d]imidazol-5-yloxy)piperidine-1-carbonyl)nicotinamide]

The remaining lines, values behind:

Compound	pEC50
COc1ccc(C(=O)C2CCCN(C(=O)c3ccc(C(=O)Nc4ccc(Oc5ccc(F)cc5)nc4)cn3)C2)cc1 (stereo not shown) [Compound 7-10, N-(6-(4-fluorophenoxy)pyridin-3-yl)-6-(3-(4-methoxybenzoyl)piperidine-1-carbonyl)nicotinamide]	5.00 to 6.00
COc1ccc(C(=O)C2CCN(C(=O)c3ccc(C(=O)NC4CCN(Cc5ccc(C#N)c(OC)c5)CC4(C)C)cn3)CC2)cc1 (stereo not shown) [Compound 7-89, N-(1-(4-cyano-3-methoxybenzyl)-3,3-dimethylpiperidin-4-yl)-6-(4-(4-methoxybenzoyl)piperidine-1-carbonyl)nicotinamide]	5.00 to 6.00
CC(=O)c1ccc(Oc2ccc(NC(=O)c3ccc(C(=O)N4CCN(Cc5ccc(S(=O)(=O)N6CCCC6)cc5)CC4)nc3)cn2)cc1 [Compound 7-83, N-(6-(4-acetylphenoxy)pyridin-3-yl)-6-(4-(4-(pyrrolidin-1-ylsulfonyl)benzyl)piperazine-1-carbonyl)nicotinamide]	5.00 to 6.00
